Assay results: EP2208725A1, “Novel specific inhibitors of ubiquitin specific protease 7, the pharmaceutical compositions thereof and their therapeutic applications” (Hybrigenics S.A., priority 2009, dated 2010)

Experiments:
Caspase 3 = target: T1, Caspase 3 (Homo sapiens, UniProt P42574); experiment: Caspase 3 activity assay (Ac-DEVD-AMC); format: biochemical; details: 250 nM Ac-DEVD-AMC, 1.6 nM enzyme; compounds tested from 200 µM to 91 nM; unit inferred; read-out: Inhibition of cysteine protease activities: Casp3
T1 sequence (P42574 29-175 limits assumed): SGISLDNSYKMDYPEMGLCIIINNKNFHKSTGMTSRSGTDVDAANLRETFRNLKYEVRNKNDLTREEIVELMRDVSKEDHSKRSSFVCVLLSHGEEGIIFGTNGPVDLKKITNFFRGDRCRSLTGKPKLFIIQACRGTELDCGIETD
T1 sequence (P42574 176-277 limits assumed): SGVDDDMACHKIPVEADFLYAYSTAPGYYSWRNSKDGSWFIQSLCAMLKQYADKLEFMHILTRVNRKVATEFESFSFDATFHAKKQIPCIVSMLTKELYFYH
Method: Caspase 3 was diluted in Caspase 3 buffer (100 mM Hepes pH 7.5; 10% sucrose; 0.1% CHAPS). Compounds stocks (100 mM) were stored at -20°C in DMSO. Compounds were tested at different concentrations: from 200 µM to 91 nM. Reactions were performed as duplicates in Black LJL 96 well plates (HE microplates; Molecular Devices; 20 µl final reaction volume). The substrate concentration for caspase 3 specificity assay was 250 nM (Ac-DEVD-AMC; Promega). The concentration of the enzyme (Caspase 3) in specificity assays was 1.6 nM. The concentrations were determined in order to perform specificity assays under initial velocities at fixed substrate concentration. Compounds were pre-incubated with enzymes for 30 minutes at 25°C. Reactions were initiated by addition of substrate to the plates containing the enzymes (+/- compounds) diluted in assay buffer. Reactions were incubated for 60 minutes at 37°C. Reactions were stopped by adding acetic acid (100 mM final). Readings were performed on a Pherastar Fluorescent Reader (BMG). λ Emission 380 nm; λ Excitation = 460 nm. Data (mean values +/- standard deviation) were analyzed as % of control (no compound) and plotted as percentage versus the Log of the compound concentration using GraphPad (Prism). Data were fitted to a sigmoidal model (variable slope).

USP5 = target: T2, USP5 (Homo sapiens, UniProt P45974); experiment: USP5 activity assay (Ub-AMC); format: biochemical; details: 300 nM Ub-AMC, 300 pM enzyme; compounds tested from 200 µM to 91 nM; unit inferred; read-out: Inhibition of cysteine protease activities: USP 5
T2 sequence (P45974 1-858): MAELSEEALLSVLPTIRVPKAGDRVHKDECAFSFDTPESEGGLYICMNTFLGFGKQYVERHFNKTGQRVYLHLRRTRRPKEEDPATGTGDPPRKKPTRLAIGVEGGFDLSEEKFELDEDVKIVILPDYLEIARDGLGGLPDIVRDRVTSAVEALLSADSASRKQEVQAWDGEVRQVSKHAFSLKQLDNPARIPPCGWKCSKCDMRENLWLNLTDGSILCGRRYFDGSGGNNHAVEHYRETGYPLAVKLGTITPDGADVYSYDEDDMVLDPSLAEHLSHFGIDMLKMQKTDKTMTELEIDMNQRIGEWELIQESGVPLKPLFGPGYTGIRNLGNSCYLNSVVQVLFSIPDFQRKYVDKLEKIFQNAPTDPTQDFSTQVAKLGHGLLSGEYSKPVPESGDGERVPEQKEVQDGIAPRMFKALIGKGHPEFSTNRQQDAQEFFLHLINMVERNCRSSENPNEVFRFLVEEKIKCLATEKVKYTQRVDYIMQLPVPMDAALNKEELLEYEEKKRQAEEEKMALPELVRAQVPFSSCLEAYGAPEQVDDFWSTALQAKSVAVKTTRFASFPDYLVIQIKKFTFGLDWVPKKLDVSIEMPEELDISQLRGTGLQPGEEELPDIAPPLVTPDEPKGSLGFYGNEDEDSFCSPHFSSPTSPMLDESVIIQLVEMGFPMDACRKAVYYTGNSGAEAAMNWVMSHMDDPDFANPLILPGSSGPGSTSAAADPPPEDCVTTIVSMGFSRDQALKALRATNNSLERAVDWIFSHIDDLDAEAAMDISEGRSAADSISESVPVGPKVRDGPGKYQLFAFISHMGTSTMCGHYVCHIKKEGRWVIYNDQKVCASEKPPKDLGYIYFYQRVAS
Method: USP5 was diluted in USP buffer (50 mM Tris HCl; 0.5 mM EDTA; 5 mM DTT; 0.01% Triton X-100; Bovine Serum Albumin 0.05 mg.ml^-1 pH 7.6). Compounds stocks (100 mM) were stored at -20°C in DMSO. Compounds were tested at different concentrations: from 200 µM to 91 nM. Reactions were performed as duplicates in Black LJL 96 well plates (HE microplates; Molecular Devices; 20 µl final reaction volume). The substrate concentration for USP5 was 300 nM Ub-AMC (Boston Biochem). The concentrations of the enzyme (USP5) in specificity assays was 300 pM. The concentrations were determined in order to perform specificity assays under initial velocities at fixed substrate concentration. Compounds were pre-incubated with enzymes for 30 minutes at 25°C. Reactions were initiated by addition of substrate to the plates containing the enzymes (+/- compounds) diluted in assay buffer. Reactions were incubated for 60 minutes at 37°C. Reactions were stopped by adding acetic acid (100 mM final). Readings were performed on a Pherastar Fluorescent Reader (BMG). λ Emission 380 nm; λ Excitation = 460 nm. Data (mean values +/- standard deviation) were analyzed as % of control (no compound) and plotted as percentage versus the Log of the compound concentration using GraphPad (Prism). Data were fitted to a sigmoidal model (variable slope).

SMILES	IC50 (Caspase 3) [µM]	IC50 (USP5) [µM]
CC(=O)C1=C(O)C(=O)N(CCc2ccc(Cl)cc2)C1c1ccc(Br)cc1 (centres unmarked) [Example 25, 4-acetyl-5-(4-bromo-phenyl)-1-[2-(4-chloro-phenyl)-ethyl]-3-hydroxy-1,5-dihydro-pyrrol-2-one]	> 200	> 200
CC(=O)C1=C(O)C(=O)N(CCc2ccc(Br)cc2)C1c1ccc(Br)cc1 (centres unmarked) [Example 26, 4-acetyl-5-(4-bromo-phenyl)-1-[2-(4-bromo-phenyl)-ethyl]-3-hydroxy-1,5-dihydro-pyrrol-2-one]	> 200	> 200
CC(=O)C1=C(O)C(=O)N(CCc2ccc(Cl)c(Cl)c2)C1c1ccc(Br)cc1 (centres unmarked) [Example 28, 4-acetyl-5-(4-bromo-phenyl)-1-[2-(3,4-dichloro-phenyl)-ethyl]-3-hydroxy-1,5-dihydro-pyrrol-2-one]	> 200	> 200
COc1cccc(CCN2C(=O)C(O)=C(C(C)=O)C2c2ccc(Br)cc2)c1 (centres unmarked) [Example 30, 4-acetyl-5-(4-bromo-phenyl)-3-hydroxy-1-[2-(3-methoxyphenyl)-ethyl]-1,5-dihydro-pyrrol-2-one]	> 200	> 200
COc1ccc(CCN2C(=O)C(O)=C(C(C)=O)C2c2ccc(Br)cc2)cc1 (centres unmarked) [Example 32, 4-acetyl-5-(4-bromo-phenyl)-3-hydroxy-1-[2-(4-methoxyphenyl)-ethyl]-1,5-dihydro-pyrrol-2-one]	> 200	> 200
CC(=O)C1=C(O)C(=O)N(CCc2ccc(F)cc2)C1c1ccc(Br)cc1 (centres unmarked) [Example 33, 4-acetyl-5-(4-bromo-phenyl)-3-hydroxy-1-[2-(4-fluorophenyl)-ethyl]-1,5-dihydro-pyrrol-2-one]	> 200	> 200
CCOc1ccc(CCN2C(=O)C(O)=C(C(C)=O)C2c2ccc(Br)cc2)cc1 (centres unmarked) [Example 34, 4-acetyl-5-(4-bromo-phenyl)-3-hydroxy-1-[2-(4-ethoxy-phenyl)-ethyl]-1,5-dihydro-pyrrol-2-one]	> 200	> 200
CC(=O)C1=C(O)C(=O)N(CCc2ccccc2)C1c1ccc2c(c1)OCO2 (centres unmarked) [Example 37, 4-acetyl-5-benzo[1,3]dioxol-5-yl-3-hydroxy-1-phenethyl-1,5-dihydro-pyrrol-2-one]	> 200	> 200
CC(=O)C1=C(O)C(=O)N(CCc2ccccc2)C1c1ccc(Br)c(Br)c1 (centres unmarked) [Example 41, 4-acetyl-5-(3,4-dibromo-phenyl)-3-hydroxy-1-phenethyl-1,5-dihydro-pyrrol-2-one]	> 200	> 200
CC(=O)C1=C(O)C(=O)N(CCc2ccccc2)C1c1cccnc1Cl (centres unmarked) [Example 42, 4-acetyl-5-(2-chloro-pyridin-3-yl)-3-hydroxy-1-phenethyl-1,5-dihydro-pyrrol-2-one]	> 200	> 200
CC(=O)C1=C(O)C(=O)N(CCc2ccc(Br)cc2)C1c1ccc(Cl)cc1 (centres unmarked) [Example 45, 4-Acetyl-5-(4-chlorophenyl)-1-[2-(4-bromophenyl)-ethyl]-3-hydroxy-1,5-dihydro-pyrrol-2-one]	> 200	> 200
CC(=O)C1=C(O)C(=O)N(CCc2ccc(Cl)cc2)C1c1ccc(Cl)cc1 (centres unmarked) [Example 46, 4-Acetyl-5-(4-chlorophenyl)-1-[2-(4-chlorophenyl)-ethyl]-3-hydroxy-1,5-dihydro-pyrrol-2-one]	> 200	> 200
CC(=O)C1=C(O)C(=O)N(CCc2ccc(Cl)cc2Cl)C1c1ccc(Br)cc1 (centres unmarked) [Example 47, 4-Acetyl-5-(4-bromophenyl)-1-[2-(2,4-dichlorophenyl)-ethyl]-3-hydroxy-1,5-dihydro-pyrrol-2-one]	> 200	> 200
